# Test results published in patent publication US8198252B2, “SIRNA inhibition of PI3K P85, P110, and AKT2 and methods of use” (Board of Regents, The University of Texas System, priority 2006, dated 2012).
# Tests used:
# HT29-GFP cells = assay: Liver metastasis establishment by cells transfected with siRNA in vitro; assay type: in vivo, mice; conditions: three weeks
# Procedure: (§1) In Vivo Experiments. For in vivo studies, 4- to 6-week-old male nude^nu/nu mice were obtained from Harlan Sprague Dawley (Indianapolis, Ind.) and housed in clean, pathogen-free rooms in an environment with controlled temperature (22° C.), humidity, and a 12 hours light/dark cycle. The mice were fed standard chow (Formula Chow 5008; Purina Mills, St. Louis, Mo.) and tap water ad libitum and allowed to acclimate for 1 week. All studies were approved by the Institutional Animal Care and Use Committee of UTMB. Tumor cells were injected intrasplenically by methods previously described (Bruns et al., Neoplasia, 1:50-62 (1999)). Briefly, mice were anesthetized with halothane, a small left abdominal flank incision was created, and the spleen was exteriorized. Transfectants were harvested using only trypsin and resuspended as a single-cell suspension in Hanks Balanced Salt Solution, free of Mg^2+ and Ca^2+. Tumor cells (5×10^6 cells/400 μL) were injected into the spleen with a 27-gauge needle. The spleen was returned to the abdomen, and the wound was closed in one layer with wound clips. The mice were observed over the indicated time period using the Illumatool TLS (Lightools Research, Encinitas, Calif.). Animals were randomized into 3 experimental groups (5 animals per group) to receive p85α, p110α, or NTC siSTABLE siRNA (20 μg/mice, qod) by hydrodynamic tail vein injection (Watanabe et al., Gastroenterology, 128:1391-1404 (2005)) 24 hours after operation; mice were killed 35 days later. Experiments were performed in duplicate.
# (§2) Methods of cells transfection and liver metastasis establishment are described in Example 1.
# (§3) Akt2 is essential for colorectal cancer metastasis establishment. To determine whether Akt2 plays a causal role in colorectal cancer metastasis, we tested whether inhibition of Akt2 expression in the highly metastatic colorectal cancer cells would affect their metastatic ability. HT29^GFP or KM20^GFP cells were transfected with NTC (purchased from Dharmacon Inc.) or Akt2 siRNA (GUACUUCGAUGAUGAAUUU, SEQ ID NO:20) in vitro and inoculated intrasplenically (5×10^6) 60 hours later. To avoid intrasplenic tumor growth, the spleen was removed after 24 h. Animals were monitored individually for metastatic tumor growth using the Illumatool TLS. Three weeks after implantation the mice were sacrificed and the liver was examined for metastatic lesions by inspection of GFP fluorescence. […] In addition, the sizes of individual metastatic nodules present in the liver of both groups of mice were very similar. […] We also suspect that incomplete suppression of Akt2 by siRNA in a small subset of cells account for the residual ability of such cells to form liver metastasis.
# KM20-GFP cells = assay: as above; assay type: in vivo, mice; conditions: three weeks
# Procedure: as §1, §2, §3
# Akt2 = assay: Western blot of Akt2 in the cells used for intrasplenic inoculation; assay type: cell-based, human; conditions: before (0 h) or after (2 h) surgical procedure
# Procedure: Protein Preparation and Western Immunoblot. Western immunoblot analyses were performed as described previously (Wang et al., Clin Cancer Res. 8:1940-1947 (2002)). Cells were lysed with TNN buffer at 4° C. for 30 minutes. Lysates were clarified by centrifugation (10,000 g for 30 minutes at 4° C.) and protein concentrations determined using the method of Bradford (Bradford, Anal Biochem., 72:248-254 (1976)). Briefly, total protein (60 μg) was resolved on a 10% polyacrylamide gel and transferred to Immobilon-P […] membranes. Filters were incubated overnight at 4° C. in blotting solution (Tris-buffered saline containing 5% nonfat dried milk and 0.1% Tween 20), followed by a 1-hour incubation with primary antibodies. Filters were washed 3 times in a blocking solution and incubated with horseradish peroxidase-conjugated secondary antibodies for 1 hour. After 3 additional washes, the immune complexes were visualized by ECL detection.
# Akt2 is essential for colorectal cancer metastasis establishment. […] Animals were monitored individually for metastatic tumor growth using the Illumatool TLS. Three weeks after implantation the mice were sacrificed and the liver was examined for metastatic lesions by inspection of GFP fluorescence. […]
# [1] = 5×10^6 intrasplenically 60 hours later, compared with NTC siRNA
sequence,measurement,setting,value
GUACUUCGAUGAUGAAUUU [Akt2 siRNA],macroscopically visible metastases in the liver,HT29-GFP cells; [1],formed very few metastases
same,number of micrometastatic lesions in the liver (histological analysis),HT29-GFP cells,drastically reduced
same,"sizes of individual metastatic nodules in the liver, compared with NTC group",HT29-GFP cells,very similar
same,macroscopically visible metastases in the liver,KM20-GFP cells; [1],formed very few metastases
same,number of micrometastatic lesions in the liver (histological analysis),KM20-GFP cells,drastically reduced
same,"sizes of individual metastatic nodules in the liver, compared with NTC group",KM20-GFP cells,very similar
same,Akt2 expression,Akt2; HT29-GFP cells used for intrasplenic inoculation,confirmed Akt2 downregulation
same,Akt2 expression,Akt2; KM20-GFP cells used for intrasplenic inoculation,confirmed Akt2 downregulation
